Experimental data taken from patent publication US12643906B2, “Fused aza-heterocyclic amide compound and use thereof” (CSPC ZHONGQI PHARMACEUTICAL TECHNOLOGY (SHIJIAZHUANG) CO., …, priority 2020, dated 2026).
Read-outs that look alike come from different tables or passages of the source.

Columns and labels:
TRKC(G623R) = target: T1, TRKC(G623R) (Homo sapiens, UniProt Q16288, G623R); experiment: HTRF kinase inhibition assay, TRKC(G623R); format: biochemical
T1 construct: purchased Bioduro
Experimental: (§1) The compound to be tested with a certain concentration gradient and an enzyme solution were successively added into a plate (kinase buffer (1× kinase buffer (Cisbio, Cat #62EZBFDD), pH 7.5; 5 mM MgCl2, 1 mM DTT) was added into negative control wells), and the compound plate was centrifuged at 1000 rpm for 30 seconds. The plate was sealed and incubated in a Constant Temperature Incubator at 25° C. for 30 min. A substrate solution containing TK-Sub-biotin (Cisbio, Cat #61TKOBL) and ATP (Sigma, Cat #R0441) was prepared, the substrate solution was added into a 384-well plate, and the plate was centrifuged at 1000 rpm for 30 seconds. The plate was sealed and incubated in a Constant Temperature Incubator at 25° C. for 60 min.
(§2) TK antibody and XL665 were diluted, mixed and added into the assay plate, and the plate was centrifuged at 1000 rpm for 30 seconds. The plate was sealed and incubated in a Constant Temperature incubator Incubator at 25° C. for 60 min. The assay plate was placed on an Envision reader for reading. (HTRF 665/615 ratio: signal value at 665 nm/signal value at 615 nm) Inhibition=(rationegative control well−ratiocompound well)/(rationegative control well−ratioenzyme-free control well)×100% 1.3 Data Analysis and Curve Fitting
(§3) Data were fitted in XLFit excel add-in version 5.4.0.8 to obtain IC50 values.

TRKA(G595R) = target: T2, TRKA(G595R) (Homo sapiens, UniProt P04629, G595R); experiment: HTRF kinase inhibition assay, TRKA(G595R); format: biochemical
T2 construct: purchased signalchem
Experimental: as §1, §2, §3

[1] = tested on: Ba/F3 LMNA-NTRK1-G667C model; settings: 100 mg/kg, gavage
Experimental: (§4) The cells in the logarithmic growth phase were collected and re-suspending in serum-free culture medium to make the cell concentration at […] cells/mL. The cell suspension was added with equal volume of Matrigel to make the final cell concentration at 3×10^7-5×10^7 cells/mL. The animal model was established by subcutaneously inoculating 0.1 mL of tumor cell suspension in the axilla of the forelimb of NuNu mice (female, 4-6 weeks, Beijing Vital River Laboratory Animal Technology Co., Ltd.) in an amount of 3×10^6-5×10^6 cells/mouse.
(§5) The maximum and the minimum tumor diameters of the xenografts in nude mice were measured using a vernier caliper, and the tumor volume (TV) was calculated according to the formula: V=½×a×b^2, where a and b represent the maximum and minimum diameters of the tumor mass, respectively. Nude mice with appropriate tumor volume were selected and the mice were evenly divided into 7 groups of 6 mice (100-200 mm^3) by tumor volume using a random number method.
(§6) Tumor diameters were measured twice weekly and tumor volume was calculated. […] (where Ti represents the mean tumor volume of a certain administration group on a certain day; TO represents the mean tumor volume of the administration group at the start of administration, Vi represents the mean tumor volume of the vehicle control group on a certain day (same day as Ti) and V0 represents the mean tumor volume of the vehicle control group at the start of administration); • Tumor inhibition rate: at the end of the test, the animals were executed by removing the cervical vertebrae.

[2] = tested on: Ba/F3 LMNA-NTRK1-G595R model; settings: gavage
Experimental: as §4, §5, §6

Ba/F3 LMNA-NTRK1-G595R = target: T3, Ba/F3 LMNA-NTRK1-G595R (Homo sapiens, UniProt P04629, G595R, cells depend on it); experiment: In vitro cell proliferation inhibition (MTT); format: cell-based, murine; settings: 72 h, read-out: IC50 Ba/F3 LMNA-NTRK1-G595R
T3 construct: fused on or other part: P02545 (Prelamin-A/C)
Experimental: (§7) Cells in the logarithmic growth phase were harvested and counted using a […]. The cell suspension with a certain density was pipetted uniformly and seeded into a 96-well plate with each well of 100 μL, and shaken to make the cells uniformly disperse into the wells. 100 μL of compound solution with certain concentration gradient was added into each well, and 3 duplicate wells were set for each concentration. The plate was cultured in a CO2 incubator at 37° C. for 72 h. 20 μL of MTT working solution (5 mg/mL) was added into each well, and the plate was placed at 37° C. for 4 h, and centrifuged at 1000 rpm for 5 min by a plate centrifuge. After 180 μL of culture medium was discarded, the plate was added with 150 μL of DMSO, and mixed well with a microplate shaker, the plate bottom was wiped, and optical density (OD) at 550 nm was detected with a microplate reader.

Ba/F3 LMNA-NTRK1-G667C = target: T4, Ba/F3 LMNA-NTRK1-G667C (Homo sapiens, UniProt P04629, G667C, cells depend on it); experiment: In vitro cell proliferation inhibition (MTT); format: cell-based, murine; settings: 72 h, read-out: IC50 Ba/F3 LMNA-NTRK1-G667C
T4 construct: fused on or other part: P02545 (Prelamin-A/C)
Experimental: as §7

Ba/F3 LMNA-NTRK1 = target: T5, Ba/F3 LMNA-NTRK1 (Homo sapiens, UniProt P04629); experiment: In vitro cell proliferation inhibition (MTT); format: cell-based, murine; settings: 72 h, read-out: IC50 Ba/F3 LMNA-NTRK1
T5 construct: fused on or other part: P02545 (Prelamin-A/C)
Experimental: as §7

Ba/F3 ETV6-NTRK2 = target: T6, Ba/F3 ETV6-NTRK2 (Homo sapiens, UniProt Q16620); experiment: In vitro cell proliferation inhibition (MTT); format: cell-based, murine; settings: 72 h, read-out: IC50 Ba/F3 ETV6-NTRK2
T6 construct: fused on or other part: P41212 (Transcription factor ETV6)
Experimental: as §7

Ba/F3 ETV6-NTRK3-G623R = target: T7, Ba/F3 ETV6-NTRK3-G623R (Homo sapiens, UniProt Q16288, G623R, cells depend on it); experiment: In vitro cell proliferation inhibition (MTT); format: cell-based, murine; settings: 72 h, read-out: IC50 Ba/F3 ETV6-NTRK3-G623R
T7 construct: fused on or other part: P41212 (Transcription factor ETV6)
Experimental: as §7

TRKB = target: T8, TRKB (Homo sapiens, UniProt Q16620); experiment: HTRF kinase inhibition assay, TRKB; format: biochemical
T8 construct: purchased Bioduro
Experimental: as §1
(§8) TK antibody and XL665 were diluted, mixed and added into the assay plate, and the plate was centrifuged at 1000 rpm for 30 seconds. The plate was sealed and incubated in a Constant Temperature incubator Incubator at 25° C. for 60 min. The assay plate was placed on an Envision reader for reading.
as §3

TRKC = target: T9, TRKC (Homo sapiens, UniProt Q16288); experiment: HTRF kinase inhibition assay, TRKC; format: biochemical
T9 construct: purchased Bioduro
Experimental: as §1, §2, §3

TRKC(G696A) = target: T10, TRKC(G696A) (Homo sapiens, UniProt Q16288, G696A); experiment: HTRF kinase inhibition assay, TRKC(G696A); format: biochemical
T10 construct: purchased Bioduro
Experimental: as §1, §8, §3

IC50 (TRKC(G623R)): 0.205 nM
IC50 (TRKA(G595R)): < 0.169 nM
Rate of weight gain (%) [1]: 8.16%
Rate of weight gain (%) ([2]; 50 mg/kg): 10.66%
Rate of weight gain (%) ([2]; 100 mg/kg): 8.32%
GI50 (Ba/F3 LMNA-NTRK1-G595R): 0.166 nM
GI50 (Ba/F3 LMNA-NTRK1-G667C): 2.21 nM
GI50 (Ba/F3 LMNA-NTRK1): 0.729 nM
GI50 (Ba/F3 ETV6-NTRK2): 1.77 nM
GI50 (Ba/F3 ETV6-NTRK3-G623R): 0.674 nM
IC50 (TRKB): 0.986 nM
IC50 (TRKC): 0.443 nM
IC50 (TRKC(G696A)): 0.383 nM
SMILES: O=C(Nc1ccc(N2CCN(C(=O)CO)CC2)cc1)c1cnn2ccc(N3C[C@@H](F)C[C@@H]3c3cc(F)ccc3F)nc12 [Compound 4, 5-((2R,4S)-2-(2,5-difluorophenyl)-4-fluoropyrrolidin-1-yl)-N-(4-(4-(2-hydroxyacetyl)piperazin-1-yl)phenyl)pyrazolo[1,5-a]pyrimidine-3-carboxamide]
Number of animals (Survival/total) [1]: (6/6)
TGI (%) [1]: 84.0%
Tumor volume (mm^3) [1]: 197.5 ± 85.4 mm^3
Tumor weight [1]: 0.21 ± 0.08 g
Tumor weight inhibition rate (%) [1]: 61.17%
Number of animals (Survival/total) ([2]; 50 mg/kg): (6/6)
TGI (%) ([2]; 50 mg/kg): 136.9%
Tumor volume (mm^3) ([2]; 50 mg/kg): 15.7 ± 12.6 mm^3
Tumor weight ([2]; 50 mg/kg): 0.02 ± 0.01 g
Tumor weight inhibition rate (%) ([2]; 50 mg/kg): 96.16%
Number of animals (Survival/total) ([2]; 100 mg/kg): (6/6)
TGI (%) ([2]; 100 mg/kg): 138.0%
Tumor volume (mm^3) ([2]; 100 mg/kg): 11.3 ± 9.7 mm^3
Tumor weight ([2]; 100 mg/kg): 0.02 ± 0.01 g
Tumor weight inhibition rate (%) ([2]; 100 mg/kg): 96.83%
